Data reported in PubChem BioAssay AID1982 (Sanford-Burnham Center for Chemical Genomics, 2009).
Activity calls are given as the source filed them. How the calls were made is not given here.

Key:
Assay in all cases: kinase panel binding selectivity, selectivity assay, biochemical, KINOMEscan (AID 1982)
[1] = molecular target: 5'-AMP-activated protein kinase catalytic subunit alpha-1 (Homo sapiens) (UniProt Q13131); conditions: KINOMEscan 353-kinase binding panel, qPCR; AMPK-alpha1; at 10 µM; hits give low values
[2] = tested on: ANKK1; conditions: KINOMEscan 353-kinase binding panel, qPCR, at 10 µM, hits give low values
[3] = tested on: CAMK4; conditions: KINOMEscan 353-kinase binding panel, qPCR, at 10 µM, hits give low values
[4] = tested on: CSNK1E; conditions: KINOMEscan 353-kinase binding panel, qPCR, at 10 µM, hits give low values
[5] = molecular target: Calcium/calmodulin-dependent protein kinase type 1 (Homo sapiens) (UniProt Q14012); conditions: KINOMEscan 353-kinase binding panel, qPCR; CAMK1; at 10 µM; hits give low values
[6] = tested on: DCAMKL3; conditions: KINOMEscan 353-kinase binding panel, qPCR, at 10 µM, hits give low values
[7] = molecular target: Focal adhesion kinase 1 (Homo sapiens) (UniProt Q05397); conditions: KINOMEscan 353-kinase binding panel, qPCR; PTK2; at 10 µM; hits give low values
[8] = tested on: GCN2(Kin.Dom.2,S808G); conditions: KINOMEscan 353-kinase binding panel, qPCR, at 10 µM, hits give low values
[9] = molecular target: Inhibitor of nuclear factor kappa-B kinase subunit beta (Homo sapiens) (UniProt O14920); conditions: KINOMEscan 353-kinase binding panel, qPCR; IKK-beta; at 10 µM; hits give low values
[10] = tested on: JNK1; conditions: KINOMEscan 353-kinase binding panel, qPCR, at 10 µM, hits give low values
[11] = tested on: LATS1; conditions: KINOMEscan 353-kinase binding panel, qPCR, at 10 µM, hits give low values
[12] = tested on: LOK; conditions: KINOMEscan 353-kinase binding panel, qPCR, at 10 µM, hits give low values
[13] = tested on: MEK2; conditions: KINOMEscan 353-kinase binding panel, qPCR, at 10 µM, hits give low values
[14] = tested on: MERTK; conditions: KINOMEscan 353-kinase binding panel, qPCR, at 10 µM, hits give low values
[15] = tested on: MRCKB; conditions: KINOMEscan 353-kinase binding panel, qPCR, at 10 µM, hits give low values
[16] = tested on: MYLK2; conditions: KINOMEscan 353-kinase binding panel, qPCR, at 10 µM, hits give low values
[17] = molecular target: Macrophage colony-stimulating factor 1 receptor (Homo sapiens) (UniProt P07333); conditions: KINOMEscan 353-kinase binding panel, qPCR; CSF1R; at 10 µM; hits give low values
[18] = molecular target: Misshapen-like kinase 1 (Homo sapiens) (UniProt Q8N4C8); conditions: KINOMEscan 353-kinase binding panel, qPCR; MINK; at 10 µM; hits give low values
[19] = molecular target: Rho-associated protein kinase 2 (Homo sapiens) (UniProt O75116); conditions: KINOMEscan 353-kinase binding panel, qPCR; ROCK2; at 10 µM; hits give low values
[20] = molecular target: Ribosomal protein S6 kinase alpha-5 (Homo sapiens) (UniProt O75582); conditions: KINOMEscan 353-kinase binding panel, qPCR, at 10 µM, hits give low values
[21] = molecular target: SRSF protein kinase 1 (Homo sapiens) (UniProt Q96SB4); conditions: KINOMEscan 353-kinase binding panel, qPCR; SRPK1; at 10 µM; hits give low values
[22] = molecular target: Serine/threonine-protein kinase 33 (Homo sapiens) (UniProt Q9BYT3); conditions: KINOMEscan 353-kinase binding panel, qPCR; STK33; at 10 µM; hits give low values
[23] = molecular target: Serine/threonine-protein kinase pim-1 (Homo sapiens) (UniProt P11309); conditions: KINOMEscan 353-kinase binding panel, qPCR; PIM1; at 10 µM; hits give low values
[24] = tested on: SgK085; conditions: KINOMEscan 353-kinase binding panel, qPCR, at 10 µM, hits give low values
[25] = tested on: TAOK3; conditions: KINOMEscan 353-kinase binding panel, qPCR, at 10 µM, hits give low values
[26] = tested on: TESK1; conditions: KINOMEscan 353-kinase binding panel, qPCR, at 10 µM, hits give low values
[27] = tested on: TIE2; conditions: KINOMEscan 353-kinase binding panel, qPCR, at 10 µM, hits give low values
[28] = molecular target: Tyrosine-protein kinase ABL1 (Homo sapiens) (UniProt P00519); conditions: KINOMEscan 353-kinase binding panel, qPCR, at 10 µM, hits give low values
[29] = molecular target: Tyrosine-protein kinase Fer (Homo sapiens) (UniProt P16591); conditions: KINOMEscan 353-kinase binding panel, qPCR, at 10 µM, hits give low values
[30] = molecular target: Tyrosine-protein kinase JAK2 (Homo sapiens) (UniProt O60674); conditions: KINOMEscan 353-kinase binding panel, qPCR; JAK2(Kin.Dom.2); at 10 µM; hits give low values
[31] = tested on: ULK1; conditions: KINOMEscan 353-kinase binding panel, qPCR, at 10 µM, hits give low values
[32] = molecular target: Wee1-like protein kinase (Homo sapiens) (UniProt P30291); conditions: KINOMEscan 353-kinase binding panel, qPCR, at 10 µM, hits give low values
[33] = molecular target: cAMP-dependent protein kinase catalytic subunit alpha (Homo sapiens) (UniProt P17612); conditions: KINOMEscan 353-kinase binding panel, qPCR; PKAC-alpha; at 10 µM; hits give low values

Measured: percent of control binding

Sequence of Tyrosine-protein kinase ABL1 (Homo sapiens) (P00519 whole entry, looked up): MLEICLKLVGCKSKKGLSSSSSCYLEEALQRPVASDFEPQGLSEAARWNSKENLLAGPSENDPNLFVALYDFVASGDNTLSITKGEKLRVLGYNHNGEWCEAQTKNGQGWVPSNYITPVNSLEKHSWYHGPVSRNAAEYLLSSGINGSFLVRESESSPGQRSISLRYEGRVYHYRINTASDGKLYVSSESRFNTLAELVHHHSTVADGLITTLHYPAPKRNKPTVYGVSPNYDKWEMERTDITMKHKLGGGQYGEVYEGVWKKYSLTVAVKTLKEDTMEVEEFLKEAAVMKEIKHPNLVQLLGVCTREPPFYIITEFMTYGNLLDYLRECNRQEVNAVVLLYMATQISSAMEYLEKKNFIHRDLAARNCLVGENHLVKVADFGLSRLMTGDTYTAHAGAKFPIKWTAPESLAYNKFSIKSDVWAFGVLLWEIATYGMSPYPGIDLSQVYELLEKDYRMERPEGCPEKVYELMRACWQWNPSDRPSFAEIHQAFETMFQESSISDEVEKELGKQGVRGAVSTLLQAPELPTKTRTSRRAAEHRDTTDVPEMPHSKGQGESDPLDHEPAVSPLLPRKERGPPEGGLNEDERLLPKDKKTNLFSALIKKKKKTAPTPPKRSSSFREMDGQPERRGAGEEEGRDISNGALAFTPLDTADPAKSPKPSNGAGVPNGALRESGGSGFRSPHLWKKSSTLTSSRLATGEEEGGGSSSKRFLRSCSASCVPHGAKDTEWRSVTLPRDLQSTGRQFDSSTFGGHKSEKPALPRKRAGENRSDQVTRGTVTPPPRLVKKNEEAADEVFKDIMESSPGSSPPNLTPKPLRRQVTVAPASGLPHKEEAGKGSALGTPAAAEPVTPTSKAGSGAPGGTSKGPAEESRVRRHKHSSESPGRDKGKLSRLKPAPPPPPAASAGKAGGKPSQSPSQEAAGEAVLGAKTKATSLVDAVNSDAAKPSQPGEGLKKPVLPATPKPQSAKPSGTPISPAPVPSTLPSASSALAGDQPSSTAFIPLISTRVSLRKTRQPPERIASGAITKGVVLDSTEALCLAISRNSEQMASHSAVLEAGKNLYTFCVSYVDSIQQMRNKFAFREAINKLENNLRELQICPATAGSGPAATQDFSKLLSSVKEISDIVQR
Sequence of Ribosomal protein S6 kinase alpha-5 (Homo sapiens) (O75582 whole entry, looked up): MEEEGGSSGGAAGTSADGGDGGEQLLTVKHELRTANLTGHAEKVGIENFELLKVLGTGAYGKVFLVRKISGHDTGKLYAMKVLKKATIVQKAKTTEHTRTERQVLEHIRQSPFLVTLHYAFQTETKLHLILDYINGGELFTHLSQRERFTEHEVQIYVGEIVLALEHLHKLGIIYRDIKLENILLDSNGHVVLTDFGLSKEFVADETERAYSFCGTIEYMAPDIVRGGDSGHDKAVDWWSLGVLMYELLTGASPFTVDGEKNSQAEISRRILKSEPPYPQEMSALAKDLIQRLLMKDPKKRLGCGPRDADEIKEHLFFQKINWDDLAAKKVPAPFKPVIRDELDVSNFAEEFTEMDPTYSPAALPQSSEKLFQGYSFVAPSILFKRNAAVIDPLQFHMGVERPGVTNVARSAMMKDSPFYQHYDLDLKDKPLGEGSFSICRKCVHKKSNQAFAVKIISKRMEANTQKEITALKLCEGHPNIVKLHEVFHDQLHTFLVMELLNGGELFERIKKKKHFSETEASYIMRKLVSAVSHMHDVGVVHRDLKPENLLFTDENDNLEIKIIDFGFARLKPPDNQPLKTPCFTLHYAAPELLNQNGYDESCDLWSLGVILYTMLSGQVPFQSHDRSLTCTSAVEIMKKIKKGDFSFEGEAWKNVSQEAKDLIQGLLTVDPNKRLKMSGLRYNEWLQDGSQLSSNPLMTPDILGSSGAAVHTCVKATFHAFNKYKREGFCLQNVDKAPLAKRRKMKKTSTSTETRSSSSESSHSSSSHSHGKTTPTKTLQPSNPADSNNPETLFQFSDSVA
Sequence of SRSF protein kinase 1 (Homo sapiens) (Q96SB4 whole entry, looked up): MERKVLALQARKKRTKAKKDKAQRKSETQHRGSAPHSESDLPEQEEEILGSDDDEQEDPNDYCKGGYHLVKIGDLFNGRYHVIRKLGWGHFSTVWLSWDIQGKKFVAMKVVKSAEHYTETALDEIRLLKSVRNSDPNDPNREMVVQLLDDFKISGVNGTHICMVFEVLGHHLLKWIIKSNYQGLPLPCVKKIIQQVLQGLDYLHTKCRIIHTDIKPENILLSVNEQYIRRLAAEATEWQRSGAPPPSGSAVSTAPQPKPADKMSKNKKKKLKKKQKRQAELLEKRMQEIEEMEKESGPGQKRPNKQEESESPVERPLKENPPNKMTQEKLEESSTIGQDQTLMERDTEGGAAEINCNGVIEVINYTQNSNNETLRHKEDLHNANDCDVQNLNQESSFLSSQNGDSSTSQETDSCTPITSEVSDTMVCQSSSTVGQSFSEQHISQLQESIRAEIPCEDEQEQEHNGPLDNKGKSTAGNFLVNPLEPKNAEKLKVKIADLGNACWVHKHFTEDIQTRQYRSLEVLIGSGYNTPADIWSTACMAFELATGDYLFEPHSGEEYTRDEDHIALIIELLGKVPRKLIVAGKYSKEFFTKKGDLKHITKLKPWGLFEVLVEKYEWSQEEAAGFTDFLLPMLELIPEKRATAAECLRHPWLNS
Sequence of Tyrosine-protein kinase JAK2 (Homo sapiens) (O60674 whole entry, looked up): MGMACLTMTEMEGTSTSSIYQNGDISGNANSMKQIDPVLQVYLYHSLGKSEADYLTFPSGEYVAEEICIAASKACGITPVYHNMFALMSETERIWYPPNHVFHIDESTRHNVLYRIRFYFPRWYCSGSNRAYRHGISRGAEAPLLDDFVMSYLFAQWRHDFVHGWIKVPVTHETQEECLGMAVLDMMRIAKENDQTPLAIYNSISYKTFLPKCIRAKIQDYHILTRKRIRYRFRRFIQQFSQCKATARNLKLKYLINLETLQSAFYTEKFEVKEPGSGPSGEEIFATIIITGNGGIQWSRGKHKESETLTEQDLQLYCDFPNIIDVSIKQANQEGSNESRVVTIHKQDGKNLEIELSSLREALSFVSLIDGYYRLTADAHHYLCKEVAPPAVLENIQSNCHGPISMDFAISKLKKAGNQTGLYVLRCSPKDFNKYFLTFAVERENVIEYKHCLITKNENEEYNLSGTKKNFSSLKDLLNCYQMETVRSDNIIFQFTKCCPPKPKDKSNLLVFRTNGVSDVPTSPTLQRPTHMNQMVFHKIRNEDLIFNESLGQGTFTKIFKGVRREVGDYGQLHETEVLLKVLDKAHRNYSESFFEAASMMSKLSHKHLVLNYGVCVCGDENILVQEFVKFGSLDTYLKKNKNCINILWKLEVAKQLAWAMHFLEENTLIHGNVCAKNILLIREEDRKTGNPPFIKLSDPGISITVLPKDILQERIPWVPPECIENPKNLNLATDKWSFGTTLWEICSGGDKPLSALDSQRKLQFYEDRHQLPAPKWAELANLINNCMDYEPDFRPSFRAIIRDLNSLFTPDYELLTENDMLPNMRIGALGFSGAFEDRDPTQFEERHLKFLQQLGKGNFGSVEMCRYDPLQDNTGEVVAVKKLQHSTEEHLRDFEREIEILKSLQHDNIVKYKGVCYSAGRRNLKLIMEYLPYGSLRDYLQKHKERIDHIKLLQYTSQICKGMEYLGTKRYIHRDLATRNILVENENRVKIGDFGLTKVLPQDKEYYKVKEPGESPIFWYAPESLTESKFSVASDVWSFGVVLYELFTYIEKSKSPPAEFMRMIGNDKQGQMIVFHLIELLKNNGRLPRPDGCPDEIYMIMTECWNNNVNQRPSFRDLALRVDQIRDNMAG
Sequence of Misshapen-like kinase 1 (Homo sapiens) (Q8N4C8 whole entry, looked up): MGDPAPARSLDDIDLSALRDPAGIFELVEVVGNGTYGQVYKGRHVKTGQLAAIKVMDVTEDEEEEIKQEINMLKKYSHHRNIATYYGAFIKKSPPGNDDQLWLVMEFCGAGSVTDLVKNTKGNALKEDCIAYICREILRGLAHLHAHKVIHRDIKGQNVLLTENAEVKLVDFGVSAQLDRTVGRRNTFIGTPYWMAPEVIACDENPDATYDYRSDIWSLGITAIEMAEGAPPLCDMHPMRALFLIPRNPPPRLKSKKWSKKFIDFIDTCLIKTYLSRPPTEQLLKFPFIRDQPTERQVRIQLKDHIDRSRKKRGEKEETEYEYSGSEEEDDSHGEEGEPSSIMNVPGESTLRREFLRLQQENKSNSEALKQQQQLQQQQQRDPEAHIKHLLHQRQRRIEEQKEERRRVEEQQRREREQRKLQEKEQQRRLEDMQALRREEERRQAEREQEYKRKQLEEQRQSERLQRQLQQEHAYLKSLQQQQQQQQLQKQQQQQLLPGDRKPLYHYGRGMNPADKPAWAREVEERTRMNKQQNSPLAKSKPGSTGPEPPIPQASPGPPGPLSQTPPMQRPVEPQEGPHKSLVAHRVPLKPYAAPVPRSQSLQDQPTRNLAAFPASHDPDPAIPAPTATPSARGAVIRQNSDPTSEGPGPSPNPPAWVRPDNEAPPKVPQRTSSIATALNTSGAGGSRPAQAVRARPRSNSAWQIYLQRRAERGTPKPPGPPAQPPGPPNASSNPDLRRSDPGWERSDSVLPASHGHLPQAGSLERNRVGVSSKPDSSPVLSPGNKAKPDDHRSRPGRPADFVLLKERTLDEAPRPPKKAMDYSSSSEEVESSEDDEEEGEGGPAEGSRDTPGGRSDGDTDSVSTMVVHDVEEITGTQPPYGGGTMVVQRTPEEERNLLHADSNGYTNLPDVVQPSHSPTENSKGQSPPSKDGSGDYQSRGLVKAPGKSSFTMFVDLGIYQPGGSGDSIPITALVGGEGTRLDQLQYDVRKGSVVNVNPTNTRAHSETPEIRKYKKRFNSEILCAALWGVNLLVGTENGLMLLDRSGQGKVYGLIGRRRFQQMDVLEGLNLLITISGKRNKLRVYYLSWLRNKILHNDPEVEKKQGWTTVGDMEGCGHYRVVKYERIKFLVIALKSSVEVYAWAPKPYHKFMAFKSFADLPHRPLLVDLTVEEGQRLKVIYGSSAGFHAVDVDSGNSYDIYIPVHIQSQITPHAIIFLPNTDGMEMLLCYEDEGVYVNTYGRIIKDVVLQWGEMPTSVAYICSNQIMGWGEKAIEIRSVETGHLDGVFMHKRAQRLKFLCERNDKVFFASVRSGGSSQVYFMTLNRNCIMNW

Cc1cc2nc(NCCCO)n(CC(=O)c3cc(C(C)(C)C)c(O)c(C(C)(C)C)c3)c2cc1C
inactive: [1] 94% | [2] 100% | [3] 100% | [4] 96% | [5] 100% | [6] 100% | [7] 100% | [8] 95% | [9] 78% | [10] 100% | [11] 94% | [12] 95% | [13] 87% | [14] 100% | [15] 100% | [16] 97% | [17] 72% | [18] 100% | [19] 59% | [20]; RPS6KA5(Kin.Dom.1) 100% | [20]; RPS6KA5(Kin.Dom.2) 100% | [21] 100% | [22] 98% | [23] 100% | [24] 99% | [25] 99% | [26] 89% | [27] 100% | [28] 100% | [28]; ABL1(E255K) 94% | [28]; ABL1(F317I) 100% | [28]; ABL1(F317L) 92% | [28]; ABL1(H396P) 98% | [28]; ABL1(M351T) 100% | [28]; ABL1(Q252H) 100% | [28]; ABL1(T315I) 86% | [28]; ABL1(Y253F) 100% | [29] 100% | [30] 47% | [31] 100% | [32] 90% | [33] 94%
